The values that follow come from ChEMBL document CHEMBL1144422, “Symmetrical bis-quinolinium compounds: new human choline kinase inhibitors with antiproliferative activity against the HT-29 cell line” (J Med Chem, 2005).

Test [1] concerns HT-29. As to the kind of experiment: Antiproliferative activity against HT 29 cells. In kind it is functional, cell-based. Particulars: Homo sapiens.
The target in the next test is Choline kinase alpha (Homo sapiens, UniProt P35790). As to the kind of experiment: Ex vivo inhibitory concentration against human choline kinase.
Test [2] concerns HT-29. As to the kind of experiment: In vitro antiproliferative effect in […] HT 29 cells. Type of test: functional, cell-based. Particulars: Homo sapiens.

The structures appear in SMILES notation. Where only a bound is given, the exact number is not on record here.

Choline kinase alpha, sequence (P35790 whole entry): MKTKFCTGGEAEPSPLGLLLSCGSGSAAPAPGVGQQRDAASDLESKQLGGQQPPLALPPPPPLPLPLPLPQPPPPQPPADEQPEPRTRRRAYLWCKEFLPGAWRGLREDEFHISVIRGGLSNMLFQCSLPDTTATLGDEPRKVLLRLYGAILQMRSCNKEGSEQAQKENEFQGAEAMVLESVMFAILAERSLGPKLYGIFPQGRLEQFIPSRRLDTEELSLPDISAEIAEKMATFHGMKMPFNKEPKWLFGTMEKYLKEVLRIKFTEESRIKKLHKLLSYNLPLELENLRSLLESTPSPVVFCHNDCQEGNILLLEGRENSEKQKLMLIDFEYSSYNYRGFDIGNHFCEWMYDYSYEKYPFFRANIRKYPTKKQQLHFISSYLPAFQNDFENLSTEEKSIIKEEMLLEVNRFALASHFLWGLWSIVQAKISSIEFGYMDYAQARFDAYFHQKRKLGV

For `CN(C)c1cc[n+](Cc2ccc(CCc3ccc(C[n+]4ccc(N(C)C)c5ccc(Cl)cc54)cc3)cc2)c2cc(Cl)ccc12`, the IC50 (in general, the concentration that inhibits the measured activity by half) in the test with HT-29 [1] turned out to be 0.45 µM; against Choline kinase alpha it was 9 µM; in the test with HT-29 [2] it was 0.27 µM.
In the test on HT-29 [2], `CN(c1ccc(Cl)cc1)c1cc[n+](Cc2ccc(CCc3ccc(C[n+]4ccc(N(C)c5ccc(Cl)cc5)c5ccc(Cl)cc54)cc3)cc2)c2cc(Cl)ccc12` yielded an IC50 of 0.8 µM.
For the molecule `c1ccc(Nc2cc[n+](Cc3ccc(CCc4ccc(C[n+]5ccc(Nc6ccccc6)c6ccccc65)cc4)cc3)c3ccccc23)cc1`, the figures for the IC50 against Choline kinase alpha and in the test on HT-29 [2] were 2.3 µM and 0.3 µM, respectively.
As to `Clc1ccc2c(N3CCCC3)cc[n+](Cc3ccc(-c4ccc(C[n+]5ccc(N6CCCC6)c6ccc(Cl)cc65)cc4)cc3)c2c1`, the IC50 against Choline kinase alpha is 19.8 µM; in the test on HT-29 [2], 2.4 µM.
The corresponding values for `c1ccc2c(c1)c(N1CCCCCC1)cc[n+]2Cc1ccc(-c2ccc(C[n+]3ccc(N4CCCCCC4)c4ccccc43)cc2)cc1` are 2.2 µM and 0.5 µM.
Regarding `CN(c1ccc(Cl)cc1)c1cc[n+](Cc2ccc(CCc3ccc(C[n+]4ccc(N(C)c5ccc(Cl)cc5)c5ccccc54)cc3)cc2)c2ccccc12`, inhibition in the test on HT-29 [2] was half-maximal at 0.7 µM (IC50).
With `Cc1c(N)ccc2c(N(C)c3ccc(Cl)cc3)cc[n+](Cc3ccc(-c4ccc(C[n+]5ccc(N(C)c6ccc(Cl)cc6)c6ccc(N)c(C)c65)cc4)cc3)c12`, the values for the IC50 at Choline kinase alpha and in the test on HT-29 [2] were 46.1 µM and 19.4 µM, respectively.
The like results for `Cc1c[n+](Cc2cccc(-c3cccc(C[n+]4cc(C)c(N)c5ccccc54)c3)c2)c2ccccc2c1N` were, in that order, 11.9 µM and 4.4 µM.
The like results for `Cc1c(N)ccc2c(N(C)c3ccccc3)cc[n+](Cc3ccc(-c4ccc(C[n+]5ccc(N(C)c6ccccc6)c6ccc(N)c(C)c65)cc4)cc3)c12` were, in that order, 96.1 µM and 25.2 µM.
The molecule `Clc1ccc2c(N3CCCC3)cc[n+](Cc3ccc(CCc4ccc(C[n+]5ccc(N6CCCC6)c6ccc(Cl)cc65)cc4)cc3)c2c1` registered an IC50 in the test on HT-29 [2] of 0.2 µM.
Regarding `CN(c1ccccc1)c1cc[n+](Cc2ccc(CCc3ccc(C[n+]4ccc(N(C)c5ccccc5)c5ccccc54)cc3)cc2)c2ccccc12`, the IC50 is 1.4 µM on Choline kinase alpha and 0.7 µM in the test on HT-29 [2].
As for `c1cc(C[n+]2ccc(N3CCCCCC3)c3ccccc32)cc(-c2cccc(C[n+]3ccc(N4CCCCCC4)c4ccccc43)c2)c1`, the IC50 against Choline kinase alpha and in the test on HT-29 [2] was 0.5 µM each time.
On to `c1ccc(Nc2cc[n+](Cc3ccc(-c4ccc(C[n+]5ccc(Nc6ccccc6)c6ccccc65)cc4)cc3)c3ccccc23)cc1`, for which the IC50 came out at 17.8 µM at Choline kinase alpha and 0.7 µM with HT-29 [2].
The corresponding values for `Nc1cc[n+](Cc2ccc(CCc3ccc(C[n+]4ccc(N)c5ccc(Cl)cc54)cc3)cc2)c2cc(Cl)ccc12` are more than 200 µM and 1.9 µM.
The like results for `c1ccc2c(c1)c(N1CCCCCC1)cc[n+]2Cc1ccc(CCc2ccc(C[n+]3ccc(N4CCCCCC4)c4ccccc43)cc2)cc1` were, in that order, 0.6 µM and 0.3 µM.
Regarding `CN(c1ccccc1)c1cc[n+](Cc2ccc(-c3ccc(C[n+]4ccc(N(C)c5ccccc5)c5ccccc54)cc3)cc2)c2ccccc12`, the IC50 came out at 3 µM at Choline kinase alpha and 0.6 µM in the test with HT-29 [2].
The corresponding values for `Nc1cc[n+](Cc2cccc(-c3cccc(C[n+]4ccc(N)c5ccc(Cl)cc54)c3)c2)c2cc(Cl)ccc12` are 20.6 µM and 1.9 µM.
Take `CN(c1ccccc1)c1cc[n+](Cc2cccc(-c3cccc(C[n+]4ccc(N(C)c5ccccc5)c5ccccc54)c3)c2)c2ccccc12`: the IC50 amounted to 0.4 µM on Choline kinase alpha and 0.8 µM in the test on HT-29 [2].
Regarding `Nc1cc[n+](Cc2ccc(-c3ccc(C[n+]4ccc(N)c5ccccc54)cc3)cc2)c2ccccc12`, the IC50 against Choline kinase alpha was 81.1 µM; in the test on HT-29 [2] it was 2.2 µM.
The like results for `CN(C)c1cc[n+](Cc2ccc(-c3ccc(C[n+]4ccc(N(C)C)c5ccccc54)cc3)cc2)c2ccccc12` were, in that order, 39.7 µM and 1.7 µM.
With `c1ccc(Nc2cc[n+](Cc3cccc(-c4cccc(C[n+]5ccc(Nc6ccccc6)c6ccccc65)c4)c3)c3ccccc23)cc1`, the IC50 is 1.3 µM against Choline kinase alpha and 1.6 µM in the test with HT-29 [2].
As for `Cc1c[n+](Cc2ccc(-c3ccc(C[n+]4cc(C)c(N)c5ccccc54)cc3)cc2)c2ccccc2c1N`, the IC50 was more than 200 µM on Choline kinase alpha and 3.3 µM in the test with HT-29 [2].
Regarding `Nc1cc[n+](Cc2ccc(CCc3ccc(C[n+]4ccc(N)c5ccccc54)cc3)cc2)c2ccccc12`, the IC50 worked out at 80 µM at Choline kinase alpha and 2 µM in the test on HT-29 [2].
Take `Clc1ccc2c(N3CCCC3)cc[n+](Cc3cccc(-c4cccc(C[n+]5ccc(N6CCCC6)c6ccc(Cl)cc65)c4)c3)c2c1`: the IC50 with HT-29 [2] worked out at 0.4 µM.
For the molecule `Cc1c(N)ccc2c(N(C)c3ccc(Cl)cc3)cc[n+](Cc3ccc(CCc4ccc(C[n+]5ccc(N(C)c6ccc(Cl)cc6)c6ccc(N)c(C)c65)cc4)cc3)c12`, the IC50 on Choline kinase alpha amounted to 57.5 µM; in the test with HT-29 [2] it was 19.5 µM.
The corresponding values for `CN(c1ccccc1)c1cc[n+](Cc2ccc(CCc3ccc(C[n+]4ccc(N(C)c5ccccc5)c5ccc(Cl)cc54)cc3)cc2)c2cc(Cl)ccc12` are 3.5 µM and 0.5 µM.
For `CN(C)c1cc[n+](Cc2cccc(-c3cccc(C[n+]4ccc(N(C)C)c5ccccc54)c3)c2)c2ccccc12`, the half-inhibitory concentration (IC50) against Choline kinase alpha was 4.4 µM; with HT-29 [2], 1.6 µM.
In the case of `CN(c1ccc(Cl)cc1)c1cc[n+](Cc2ccc(-c3ccc(C[n+]4ccc(N(C)c5ccc(Cl)cc5)c5ccc(Cl)cc54)cc3)cc2)c2cc(Cl)ccc12`, the IC50 in the test with HT-29 [2] came out at 1.2 µM.
Regarding `CN(c1ccccc1)c1cc[n+](Cc2cccc(-c3cccc(C[n+]4ccc(N(C)c5ccccc5)c5ccc(Cl)cc54)c3)c2)c2cc(Cl)ccc12`, the IC50 against Choline kinase alpha was 3.1 µM; in the test with HT-29 [2], 1 µM.
Consider `CN(C)c1cc[n+](Cc2ccc(-c3ccc(C[n+]4ccc(N(C)C)c5ccc(Cl)cc54)cc3)cc2)c2cc(Cl)ccc12`, for which the IC50 came out at 20.6 µM at Choline kinase alpha and 0.8 µM in the test with HT-29 [2].
The like results for `Cc1c(N)ccc2c(N(C)c3ccccc3)cc[n+](Cc3ccc(CCc4ccc(C[n+]5ccc(N(C)c6ccccc6)c6ccc(N)c(C)c65)cc4)cc3)c12` were, in that order, 133 µM and 7 µM.
As to `CN(C)c1cc[n+](Cc2cccc(-c3cccc(C[n+]4ccc(N(C)C)c5ccc(Cl)cc54)c3)c2)c2cc(Cl)ccc12`, 0.7 µM corresponded to half-maximal inhibition in the test on HT-29 [2] (IC50).
Still for that read-out and setting: the value for `CN(c1ccc(Cl)cc1)c1cc[n+](Cc2cccc(-c3cccc(C[n+]4ccc(N(C)c5ccc(Cl)cc5)c5ccc(Cl)cc54)c3)c2)c2cc(Cl)ccc12` was 1.9 µM; that for `CN(c1ccc(Cl)cc1)c1cc[n+](Cc2ccc(-c3ccc(C[n+]4ccc(N(C)c5ccc(Cl)cc5)c5ccccc54)cc3)cc2)c2ccccc12` [RSM-932A] was 1.2 µM.
For `Cc1c(N)ccc2c(N(C)c3ccccc3)cc[n+](Cc3cccc(-c4cccc(C[n+]5ccc(N(C)c6ccccc6)c6ccc(N)c(C)c65)c4)c3)c12`, the IC50 against Choline kinase alpha is 56.8 µM; in the test on HT-29 [2], 3.8 µM.
The corresponding values for `CN(c1ccccc1)c1cc[n+](Cc2ccc(-c3ccc(C[n+]4ccc(N(C)c5ccccc5)c5ccc(Cl)cc54)cc3)cc2)c2cc(Cl)ccc12` are 11.4 µM and 0.5 µM.
Regarding `CN(c1ccc(Cl)cc1)c1cc[n+](Cc2cccc(-c3cccc(C[n+]4ccc(N(C)c5ccc(Cl)cc5)c5ccccc54)c3)c2)c2ccccc12`, in the test with HT-29 [2], the IC50 is 1.5 µM.
For `CN(C)c1cc[n+](Cc2ccc(CCc3ccc(C[n+]4ccc(N(C)C)c5ccccc54)cc3)cc2)c2ccccc12`, the IC50 on Choline kinase alpha amounted to 10.2 µM; with HT-29 [2], 0.5 µM.
With `Nc1cc[n+](Cc2cccc(-c3cccc(C[n+]4ccc(N)c5ccccc54)c3)c2)c2ccccc12`, the IC50 worked out at 1.2 µM against Choline kinase alpha and 1.9 µM in the test on HT-29 [2].
The corresponding values for `Nc1cc[n+](Cc2ccc(-c3ccc(C[n+]4ccc(N)c5ccc(Cl)cc54)cc3)cc2)c2cc(Cl)ccc12` are 63.3 µM and 3.2 µM.
The corresponding values for `Cc1c(N)ccc2c(N(C)c3ccc(Cl)cc3)cc[n+](Cc3cccc(-c4cccc(C[n+]5ccc(N(C)c6ccc(Cl)cc6)c6ccc(N)c(C)c65)c4)c3)c12` are 147 µM and 33 µM.
